According to ChEMBL document CHEMBL4359904, “Structural tuning of acridones for developing anticancer agents targeting dihydrofolate reductase” (Bioorg Med Chem Lett, 2019):
Activity calls are given as the source filed them. No cut-off for these calls is given here.

Assays:
[1] = tested on: MOLT-4; assay: Growth inhibition of human MOLT4 cells incubated for 48 hrs by sulforhodamine B assay; assay type: functional; settings: MOLT-4, 48 h
[2] = tested on: RPMI-8226; assay: Growth inhibition of human RPMI8226 cells incubated for 48 hrs by sulforhodamine B assay; assay type: functional; settings: RPMI-8226, 48 h
[3] = tested on: HOP-62; assay: Growth inhibition of human HOP62 cells incubated for 48 hrs by sulforhodamine B assay; assay type: functional; settings: HOP-62, 48 h
[4] = tested on: NCI-H226; assay: Growth inhibition of human NCI-H226 cells incubated for 48 hrs by sulforhodamine B assay; assay type: functional; settings: NCI-H226, 48 h
[5] = tested on: NCI-H23; assay: Growth inhibition of human NCI-H23 cells incubated for 48 hrs by sulforhodamine B assay; assay type: functional; settings: NCI-H23, 48 h
[6] = tested on: NCI-H522; assay: Growth inhibition of human NCI-H522 cells incubated for 48 hrs by sulforhodamine B assay; assay type: functional; settings: NCI-H522, 48 h
[7] = tested on: HT-29; assay: Growth inhibition of human HT-29 cells incubated for 48 hrs by sulforhodamine B assay; assay type: functional; settings: HT-29, 48 h
[8] = tested on: SF-295; assay: Growth inhibition of human SF295 cells incubated for 48 hrs by sulforhodamine B assay; assay type: functional; settings: SF-295, 48 h
[9] = tested on: SF-539; assay: Growth inhibition of human SF539 cells incubated for 48 hrs by sulforhodamine B assay; assay type: functional; settings: SF-539, 48 h
[10] = tested on: Malme-3M; assay: Growth inhibition of human MALME-3M cells incubated for 48 hrs by sulforhodamine B assay; assay type: functional
[11] = tested on: SK-MEL-28; assay: Growth inhibition of human SK-MEL-28 cells incubated for 48 hrs by sulforhodamine B assay; assay type: functional; settings: SK-MEL-28, 48 h
[12] = tested on: IGROV-1; assay: Growth inhibition of human IGROV1 cells incubated for 48 hrs by sulforhodamine B assay; assay type: functional; settings: IGROV-1, 48 h
[13] = tested on: OVCAR-8; assay: Growth inhibition of human OVCAR8 cells incubated for 48 hrs by sulforhodamine B assay; assay type: functional; settings: OVCAR-8, 48 h
[14] = tested on: SK-OV-3; assay: Growth inhibition of human SKOV3 cells incubated for 48 hrs by sulforhodamine B assay; assay type: functional; settings: SK-OV-3, 48 h
[15] = tested on: A498; assay: Growth inhibition of human A498 cells incubated for 48 hrs by sulforhodamine B assay; assay type: functional; settings: A498, 48 h
[16] = tested on: CAKI-1; assay: Growth inhibition of human Caki1 cells incubated for 48 hrs by sulforhodamine B assay; assay type: functional; settings: CAKI-1, 48 h
[17] = tested on: RXF 393; assay: Growth inhibition of human RXF393 cells incubated for 48 hrs by sulforhodamine B assay; assay type: functional; settings: RXF 393, 48 h
[18] = tested on: TK-10; assay: Growth inhibition of human TK10 cells incubated for 48 hrs by sulforhodamine B assay; assay type: functional; settings: TK-10, 48 h
[19] = tested on: UO-31; assay: Growth inhibition of human UO31 cells incubated for 48 hrs by sulforhodamine B assay; assay type: functional; settings: UO-31, 48 h
[20] = tested on: DU-145; assay: Growth inhibition of human DU145 cells incubated for 48 hrs by sulforhodamine B assay; assay type: functional; settings: DU-145, 48 h
[21] = tested on: BT-549; assay: Growth inhibition of human BT549 cells incubated for 48 hrs by sulforhodamine B assay; assay type: functional; settings: BT-549, 48 h
[22] = tested on: MDA-MB-468; assay: Growth inhibition of human MDA-MB-468 cells incubated for 48 hrs by sulforhodamine B assay; assay type: functional; settings: MDA-MB-468, 48 h
[23] = tested on: K562; assay: Growth inhibition of human K562 cells at 10^-5 M incubated for 48 hrs by sulforhodamine B assay relative to control; assay type: functional; settings: K562, 48 h, read-out: GI
[24] = tested on: UO-31; assay: Growth inhibition of human UO31 cells at 10^-5 M incubated for 48 hrs by sulforhodamine B assay relative to control; assay type: functional; settings: UO-31, 48 h, read-out: GI
[25] = tested on: MCF7; assay: Growth inhibition of human MCF7 cells at 10^-5 M incubated for 48 hrs by sulforhodamine B assay relative to control; assay type: functional; settings: MCF7, 48 h, read-out: GI
[26] = tested on: OVCAR-5; assay: Growth inhibition of human OVCAR5 cells at 10^-5 M incubated for 48 hrs by sulforhodamine B assay relative to control; assay type: functional; settings: OVCAR-5, 48 h, read-out: GI
[27] = tested on: MDA-MB-468; assay: Growth inhibition of human MDA-MB-468 cells at 10^-5 M incubated for 48 hrs by sulforhodamine B assay relative to control; assay type: functional; settings: MDA-MB-468, 48 h, read-out: GI
[28] = tested on: Panel NCI-60 (60 carcinoma cell lines); assay: Therapeutic index, ratio of LC50 for human NCI60 cells to GI50 for human NCI60 cells measured after 48 hrs by sulforhodamine B assay; assay type: functional
[29] = tested on: C6; assay: Antiproliferative activity against rat C6 cells assessed as decrease in cell viability measured after 48 hrs by MTT assay; assay type: functional, cell-based
[30] = tested on: C6; assay: Cell cycle arrest in rat C6 cells assessed as decrease in cell population at G2/M phase measured after 24 hrs by propidium iodide staining based flow cytometry analysis; assay type: functional
[31] = biological target: T1, Dihydrofolate reductase (Homo sapiens) (UniProt P00374); assay: Inhibition of human dihydrofolate reductase assessed as association constant by UV-Vis spectra based Benesi Hilebrand equation analysis
T1 sequence (whole entry): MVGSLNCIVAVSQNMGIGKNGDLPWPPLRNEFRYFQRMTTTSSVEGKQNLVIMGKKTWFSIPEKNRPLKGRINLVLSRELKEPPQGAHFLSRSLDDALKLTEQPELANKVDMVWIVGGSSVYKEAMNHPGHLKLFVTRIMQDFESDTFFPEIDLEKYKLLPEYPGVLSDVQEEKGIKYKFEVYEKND

[32] = read-out: pLC50 (the source's name) (converted)

Question: What does the source list for `O=C(OC[C@@H]1CO1)c1cccc2c(=O)c3ccccc3[nH]c12`?
Answer: GI50 ([1]; read-out: GI50): 0.28 µM; CC50 ([1]; read-out: LC50 (the source's name)): > 100 µM; GI50 ([1]; read-out: pGI50 (converted)): 0.288 µM; CC50 [1, 32]: > 100 µM; TGI ([1]; read-out: pTGI (converted)): 2.34 µM; GI50 [2]: 1.95 µM; CC50 [2, 32]: > 100 µM; TGI ([2]; read-out: pTGI (converted)): 6.61 µM; GI50 [3]: 2.14 µM; CC50 [3, 32]: > 100 µM; TGI ([3]; read-out: pTGI (converted)): 5.89 µM; GI50 [4]: 1.58 µM; TGI ([4]; read-out: pTGI (converted)): 3.47 µM; GI50 [5]: 1.41 µM; CC50 [5, 32]: > 100 µM; TGI ([5]; read-out: pTGI (converted)): 4.47 µM; GI50 [6]: 1.62 µM; CC50 [6, 32]: 8.71 µM; TGI ([6]; read-out: pTGI (converted)): 3.72 µM; GI50 [7]: 2.24 µM; CC50 [7, 32]: > 100 µM; TGI ([7]; read-out: pTGI (converted)): 7.94 µM; GI50 [8]: 2.88 µM; CC50 [8, 32]: > 100 µM; TGI ([8]; read-out: pTGI (converted)): 9.55 µM; GI50 [9]: 1.78 µM; CC50 [9, 32]: 7.76 µM; TGI ([9]; read-out: pTGI (converted)): 3.72 µM; GI50 [10]: 1.66 µM; CC50 [10, 32]: 6.17 µM; TGI ([10]; read-out: pTGI (converted)): 3.16 µM; GI50 [11]: 2.4 µM; CC50 [11, 32]: > 100 µM; TGI ([11]; read-out: pTGI (converted)): 5.75 µM; GI50 [12]: 1.55 µM; CC50 [12, 32]: > 100 µM; TGI ([12]; read-out: pTGI (converted)): 5.62 µM; GI50 [13]: 1.26 µM; CC50 [13, 32]: 41.7 µM; TGI ([13]; read-out: pTGI (converted)): 5.37 µM; GI50 [14]: 2.63 µM; CC50 [14, 32]: > 100 µM; TGI ([14]; read-out: pTGI (converted)): 7.41 µM; GI50 [15]: 2.63 µM; CC50 [15, 32]: 27.5 µM; TGI ([15]; read-out: pTGI (converted)): 6.61 µM; GI50 [16]: 1.82 µM; CC50 [16, 32]: > 100 µM; TGI ([16]; read-out: pTGI (converted)): 8.32 µM; GI50 [17]: 1.38 µM; CC50 [17, 32]: 5.75 µM; TGI ([17]; read-out: pTGI (converted)): 2.82 µM; GI50 [18]: 2.34 µM; CC50 [18, 32]: > 100 µM; TGI ([18]; read-out: pTGI (converted)): 6.76 µM; GI50 [19]: 1.74 µM; CC50 [19, 32]: 77.6 µM; TGI ([19]; read-out: pTGI (converted)): 5.01 µM; GI50 [20]: 1.35 µM; CC50 [20, 32]: > 100 µM; TGI ([20]; read-out: pTGI (converted)): 5.89 µM; GI50 [21]: 1.91 µM; CC50 [21, 32]: > 100 µM; TGI ([21]; read-out: pTGI (converted)): 6.03 µM; GI50 [22]: 1.82 µM; CC50 [22, 32]: 7.94 µM; TGI ([22]; read-out: pTGI (converted)): 3.8 µM; inhibition of growth at 10 µM [23]: 95%; inhibition of growth at 10 µM [24]: 100%; inhibition of growth at 10 µM [25]: 100%; inhibition of growth at 10 µM [26]: 100%; inhibition of growth at 10 µM [27]: 100%; TI [28]: 126; inhibition [29]: Dose-dependent effect; IC50 ([29]; C6, 48 h): 0.25 to 1.5 µM; inhibition [30]: Active; Ka [31]: 1.6 ×10⁴ /M
